Laboratory results taken from patent publication US20200102295A1, “NITROCATECHOL DERIVATIVES AS COMT INHIBITORS” (BIAL - PORTELA & CA, S.A., priority 2005, published 2020).
Values joined by “and” are separate entries in the source; they are usually repeats but may differ in a detail not shown here. Equal entries are not always repeated.

Columns and labels:
mouse liver COMT = target: T1, mouse liver COMT (Mus musculus, UniProt O88587); experiment: Mouse liver COMT activity after oral administration of test compounds; assay type: in vivo; conditions: 3 mg/kg oral, 3 h after administration
T1 construct: Aliquots of 0.5 ml of liver homogenates were preincubated; from tissue; host or cells: mouse liver homogenate (NMRI mice, dosed orally; ex vivo activity)
T1 sequence (O88587 1-265): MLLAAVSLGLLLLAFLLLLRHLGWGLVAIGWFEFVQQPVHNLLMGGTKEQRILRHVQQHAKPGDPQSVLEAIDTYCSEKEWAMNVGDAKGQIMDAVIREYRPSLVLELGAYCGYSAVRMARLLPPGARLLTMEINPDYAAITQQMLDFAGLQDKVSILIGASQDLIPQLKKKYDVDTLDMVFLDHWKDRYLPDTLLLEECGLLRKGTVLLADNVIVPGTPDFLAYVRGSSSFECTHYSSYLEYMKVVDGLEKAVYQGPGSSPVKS

[1] = system: Neuro 2A mouse neuroblastoma cells; experiment: Cell toxicity: Neuro 2A cell viability (calcein-AM); assay type: cell-based; conditions: Neuro 2A cells, 30 μM, 24 h exposure
rat liver COMT = target: T2, rat liver COMT (Rattus norvegicus, UniProt P22734); experiment: Rat liver COMT activity after oral administration of test compounds; assay type: in vivo; conditions: for Rat Liver COMT activity (% control): 3 mg/kg oral
T2 construct: the organs were immediately removed and homogenised in 5 mM phosphate buffer of pH 7.8; from tissue; host or cells: rat liver homogenate (Wistar rats, dosed orally; ex vivo activity)
T2 sequence (P22734 1-264): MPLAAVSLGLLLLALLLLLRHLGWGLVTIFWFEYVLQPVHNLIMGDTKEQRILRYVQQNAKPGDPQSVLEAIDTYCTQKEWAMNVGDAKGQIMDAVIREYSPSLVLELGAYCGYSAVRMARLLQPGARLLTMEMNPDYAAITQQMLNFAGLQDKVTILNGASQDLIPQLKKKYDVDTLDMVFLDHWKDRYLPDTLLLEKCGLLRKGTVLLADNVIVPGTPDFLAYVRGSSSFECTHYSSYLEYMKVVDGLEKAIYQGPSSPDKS

[2] = system: plasma levels of L-DOPA and 3-O-methyl-L-DOPA (3-OMD); experiment: Levels of L-DOPA and 3-O-methyl-L-DOPA in plasma of rats treated with L-DOPA plus benserazide; assay type: in vivo, rat; conditions: 3 mg/kg oral, 2 h after administration; for L-DOPA % increase (plasma level, % control) / 3-OMD % reduction (plasma level, % control): L-DOPA plus benserazide 1 h before plasma collection; for 3-OMD % reduction (plasma level, % control): given with minus sign; for L-Dopa/3-OMD: plasma ratio

Row | COMT activity (% of control) (mouse liver COMT; 3 mg/kg) | Structure (SMILES) | COMT activity (% of control) (mouse liver COMT) | % of viable cells [1] | Rat Liver COMT activity (% control) (rat liver COMT; 1 h after administration) | Rat Liver COMT activity (% control) (rat liver COMT; 3 h after administration) | Rat Liver COMT activity (% control) (rat liver COMT; 6 h after administration) | Rat Liver COMT activity (% control) (rat liver COMT; 9 h after administration) | L-DOPA % increase (plasma level, % control) [2] | 3-OMD % reduction (plasma level, % control) [2] | L-Dopa/3-OMD [2] | inhibition at 3 mg/kg (rat liver COMT; rat, po, read-out: COMT inhibition nine hours after administration)
1 |  | O=[N+]([O-])c1cc(-c2nc(-c3c[n+]([O-])ccc3C(F)(F)F)no2)cc(O)c1O [Compound 18, 3-Nitro-5-[3-(1-oxy-4-trifluoromethyl-pyridin-3-yl)-[1,2,4]oxadiazol-5-yl]-benzene-1,2-diol] | 21.2 % of control | 93.4% | 5.2 % control | 19.9 % control | 43.0 % control | 57.4 % control | 61.4% | −63.9% | 4.5 | 
2 |  | Cc1c(Cl)c(C)[n+]([O-])c(Br)c1-c1noc(-c2cc(O)c(O)c([N+](=O)[O-])c2)n1 [Compound 47, 5-[3-(2-Bromo-5-chloro-4,6-dimethyl-1-oxy-pyridin-3-yl)-[1,2,4]oxadiazol-5-yl]-3-nitrobenzene-1,2-diol] | 25.2 % of control | 81.2% | 10.6 % control | 4.0 % control | 3.8 % control | 8.2 % control | 102.9% | −58.5% | 4.9 | 
3 |  | Cc1cc(C(F)(F)F)c(-c2noc(-c3cc(O)c(O)c([N+](=O)[O-])c3)n2)c[n+]1[O-] [Compound 30, 5-[3-(6-Methyl-1-oxy-4-trifluoromethyl-pyridin-3-yl)-[1,2,4]oxadiazol-5-yl]-3-nitro-benzene-1,2-diol] | 8.8 % of control | 81.8% | 6.3 % control | 34.8 % control | 41.2 % control | 54.5 % control | 103.5% | −75.0% | 8.1 | 
4 |  | Cc1c(-c2noc(-c3cc(O)c(O)c([N+](=O)[O-])c3)n2)ccc(C(F)(F)F)[n+]1[O-] [Compound 29, 5-[3-(2-Methyl-1-oxy-6-trifluoromethyl-pyridin-3-yl)-[1,2,4]oxadiazol-5-yl]-3-nitro-benzene-1,2-diol] | 10.9 % of control | 62.2% | 1.2 % control | 18.5 % control | 39.7 % control | 56.4 % control | 105.1% | −80.7% | 10.6 | 
5 |  | Cc1c(C)c(C)[n+]([O-])c(Cl)c1-c1noc(-c2cc(O)c(O)c([N+](=O)[O-])c2)n1 [Compound 41, 5-[3-(2-Chloro-4,5,6-trimethyl-1-oxy-pyridin-3-yl)-[1,2,4]oxadiazol-5-yl]-3-nitrobenzene-1,2-diol] | 14 % of control | 95.1% | 21.2 % control | 9.3 % control | 18.8 % control | 39.7 % control | 95.2% | −72.3% | 7.1 | 
6 |  | Cc1ccc(C(=O)c2cc(O)c(O)c([N+](=O)[O-])c2)cc1 [Tolcapone, 3,4-dihydroxy-4′ -methyl-5-nitrobenzophenone, reference compound] | 13.9 % of control | 27.2% | 18.3 % control | 28.6 % control | 56.8 % control | 83.9 % control | 202.4% | −89.0% | 27.6 | ~16%
7 |  | O=[N+]([O-])c1cc(-c2nc(-c3c(Cl)c[n+]([O-])cc3Cl)no2)cc(O)c1O [Compound 7, 5-[3-(3,5-Dichloro-1-oxy-pyridin-4-yl)-[1,2,4]oxadiazol-5-yl]-3-nitro-benzene-1,2-diol] | 14.2 % of control | 56.9% |  |  |  |  |  |  |  | 
8 |  | O=[N+]([O-])c1cc(-c2nc(-c3cc[n+]([O-])c(Oc4ccccc4)c3)no2)cc(O)c1O [Compound 14, 3-Nitro-5-[3-(1-oxy-2-phenoxy-pyridin-4-yl)-[1,2,4]oxadiazol-5-yl]-benzene-1,2-diol] | 76.8 % of control | 83.5% |  |  |  |  |  |  |  | 
9 |  | O=[N+]([O-])c1cc(-c2nc(-c3cc[n+]([O-])c(N4CCOCC4)c3)no2)cc(O)c1O [Compound 11, 5-[3-(2-Morpholin-4-yl-1-oxy-pyridine-4-yl)-[1,2,4]oxadiazol-5-yl]-3-nitro-benzene-1,2-diol] | 63.9 % of control | 105.7% |  |  |  |  |  |  |  | 
10 |  | Cc1c(Cl)c(C)[n+]([O-])c(Cl)c1-c1noc(-c2cc(O)c(O)c([N+](=O)[O-])c2)n1 [Compound 45, 5-[3-(2,5-Dichloro-4,6-dimethyl-1-oxy-pyridin-3-yl)-[1,2,4]oxadiazol-5-yl]-3-nitrobenzene-1,2-diol] | 30.4 % of control | 86.6% |  |  |  |  | 100.8% | −54.3% | 4.4 | 
11 |  | O=[N+]([O-])c1cc(-c2nc(Cc3ccc[n+]([O-])c3)no2)cc(O)c1O [Compound 39, 3-Nitro-5-[3-(1′-oxy-pyridin-3-ylmethyl)-[1,2,4]oxadiazol-5-yl]-benzenediol] | 53.8 % of control | 94.9% |  |  |  |  |  |  |  | 
12 | 59 % of control and 59.9 % of control | Cc1noc(-c2cc(O)c(O)c([N+](=O)[O-])c2)n1 [Compound 1, 5-(3-methyl-1,2,4-oxadiazol-5-yl)-3-nitropyrocatechol, reference compound] |  | 55% and 55.1% |  |  |  |  |  |  |  | 
13 |  | O=[N+]([O-])c1cc(-c2nc(-c3cc[n+]([O-])c(Cl)c3)no2)cc(O)c1O [Compound 8, 5-[3-(2-Chloro-1-oxy-pyridin-4-yl)-[1,2,4]oxadiazol-5-yl]-3-nitro-benzene-1,2-diol] | 55.4 % of control | 106.7% |  |  |  |  |  |  |  | 
14 |  | O=[N+]([O-])c1cc(-c2nc(-c3ccc[n+]([O-])c3N3CCOCC3)no2)cc(O)c1O [Compound 26, 5-[3-(2-Morpholin-4-yl-1-oxy-pyridin-3-yl)-[1,2,4]oxadiazol-5-yl]-3-nitro-benzene-1,2-diol] | 35.5 % of control | 110.9% |  |  |  |  |  |  |  | 
15 |  | Cc1ccc(-c2noc(-c3cc(O)c(O)c([N+](=O)[O-])c3)n2)c(Cl)[n+]1[O-] [Compound 25, 5-[3-(2-Chloro-6-methyl-1-oxy-pyridin-3-yl)-[1,2,4]oxadiazol-5-yl]-3-nitro-benzene-1,2-diol] | 23.1 % of control | 100.2% |  |  |  |  |  |  |  | 
16 |  | O=[N+]([O-])c1cc(-c2nc(-c3cc[n+]([O-])cc3)no2)cc(O)c1O [Compound 4, 3-Nitro-5-[3-(1-oxy-pyridin-4-yl)-[1,2,4]oxadiazol-5-yl]-benzene-1,2-diol] | 42.1 % of control | 98.3% |  |  |  |  |  |  |  | 
17 |  | CCN(CC)C(=O)/C(C#N)=C/c1cc(O)c(O)c([N+](=O)[O-])c1 [Entacapone, (E)-2-cyano-N,N-diethyl-3-(3,4-dihydroxy-5-nitrophenyl)acrylamide, reference compound] |  |  |  |  |  |  | 68.5% | −55.6% | 3.8 | 
18 |  | O=[N+]([O-])c1cc(-c2nc(-c3ccc(Cl)[n+]([O-])c3)no2)cc(O)c1O [Compound 23, 5-[3-(6-Chloro-1-oxy-pyridin-3-yl)-[1,2,4]oxadiazol-5-yl]-3-nitro-benzene-1,2-diol] | 43 % of control | 41.1% |  |  |  |  |  |  |  | 
